Experimental findings from US6362165B1, “Hydroxyphenyl derivatives with HIV integrase inhibitory properties” (Pharmacor Inc., priority 1999, dated 2002) are described below.

One assay concerns the target T1, HIV-1 integrase (Human immunodeficiency virus type 1 group M subtype B, UniProt P04585). As to the kind of experiment: HIV-1 integrase inhibition assay (procedure of Burke et al.; radiolabeled duplex substrate, U5 end of HIV LTR). It is filed as biochemical. Particulars: Table 1; 3,4-dihydroxy derivative of the root amino acid, formula Ic; read-out: Anti-integrase activity (IC50) 3,4-dihydroxy derivative. How it is done: For the purposes of Table 1 (and Table 2) the HIV-1 integrase inhibition assay was carried out following a known procedure (Burke, Jr. T. R. et al., J. Med. Chem. 38, 4171-4178 (1995)). A suitable radiolabeled duplex substrate corresponding to the U5 end of the HIV LTR was used.
For the molecule `O=C(NC(Cc1ccc(O)c(F)c1)C(=O)NCCc1ccc(O)c(O)c1)c1ccc(O)c(O)c1` (racemic) [Example 48, N-[N′-(3′,4′-dihydroxybenzoyl)-DL-3-fluorotyrosinyl]-dopamine], the half-maximal inhibitory concentration (IC50) (commonly the concentration that gives 50% inhibition) was 1.4 µM.
On to `O=C(NC(Cc1cccc(O)c1)C(=O)NCCc1ccc(O)c(O)c1)c1ccc(O)c(O)c1` (racemic) [Example 50, N-[N′-(3′,4′-dihydroxybenzoyl)-DL-m-tyrosyl]-dopamine], for which the IC50 was 1.3 µM.
In the case of `O=C(N[C@H](Cc1ccc(O)cc1)C(=O)NCCc1ccc(O)c(O)c1)c1ccc(O)c(O)c1` [Example 10, N-[N′-(3′,4′-dihydroxybenzoyl)-D-tyrosyl]-dopamine], the 50% inhibitory concentration (IC50) worked out at 67 µM.
As to `O=C(N[C@@H](Cc1ccc(O)cc1)C(=O)NCCc1ccc(O)c(O)c1)c1ccc(O)c(O)c1` [Example 12, N-[N′-(3′,4′-dihydroxybenzoyl)-L-tyrosyl]-dopamine], the concentration for half-maximal inhibition (IC50) came to 8 µM.
Consider `O=C(N[C@@H](Cc1ccccc1)C(=O)NCCc1ccc(O)c(O)c1)c1ccc(O)c(O)c1` [Example 14, N-[N′-(3′,4′-dihydroxybenzoyl)-L-phenylalanyl]-dopamine], for which the IC50 is 45 µM.
As to `O=C(N[C@@H](Cc1ccc(O)c(O)c1)C(=O)NCCc1ccc(O)c(O)c1)c1ccc(O)c(O)c1` [Example 16, N-[N′-(3′,4′-dihydroxybenzoyl)-L-3,4-dihydroxy-phenylalanyl]-dopamine], the half-inhibitory concentration (IC50) came out at 8 µM.
`C[C@H](NC(=O)c1ccc(O)c(O)c1)C(=O)NCCc1ccc(O)c(O)c1` [Example 20, N-[N′-(3′, 4′-dihydroxybenzoyl)-L-alanyl]-dopamine]: the half-inhibitory concentration (IC50) was found to be 71 µM.
As to `O=C(CC[C@H](NC(=O)c1ccc(O)c(O)c1)C(=O)NCCc1ccc(O)c(O)c1)NCCc1ccc(O)c(O)c1` [Example 22, N-[′-(3′,4′-dihydroxybenzoyl)-δ-(3-hydroxytyramine)-L-glutamyl]-dopamine], the IC50 is 11 µM.
Same read-out and setting: the figure for `O=C(CC[C@H](NC(=O)c1ccc(O)c(O)c1)C(=O)NCCc1ccc(O)c(O)c1)OCc1ccccc1` [Example 23, N-[′-(3′,4′-dihydroxybenzoyl)-δ-benzyloxy-L-glutamyl]-dopamine] is 26 µM; for `CC(C)C[C@H](NC(=O)c1ccc(O)c(O)c1)C(=O)NCCc1ccc(O)c(O)c1` [Example 26, N-[N′-(3′,4′-dihydroxybenzoyl)-L-leucyl]-dopamine] it is 45 µM.
As to `O=C(NCCc1ccc(O)c(O)c1)[C@@H]1CCCN1C(=O)c1ccc(O)c(O)c1` [Example 28, N-[N′-(3′,4′-dihydroxybenzoyl)-L-prolyl]-dopamine], the IC50 is 80 µM.
Same read-out and setting: next, `O=C(N[C@@H](Cc1c[nH]c2ccccc12)C(=O)NCCc1ccc(O)c(O)c1)c1ccc(O)c(O)c1` [Example 30, N-[N′-(3′,4′-dihydroxybenzoyl)-L-tryptophyl]-dopamine]: 17 µM.
The same measure, in the same setting: the figure for `O=C(N[C@@H](Cc1c[nH]cn1)C(=O)NCCc1ccc(O)c(O)c1)c1ccc(O)c(O)c1` [Example 33] is 0.1 µM.
The same measure, in the same setting: the figure for `O=C(CC[C@H](NC(=O)c1ccc(O)c(O)c1)C(=O)OCc1ccccc1)NCCc1ccc(O)c(O)c1` [Example 49, N-(3,4-dihydroxybenzoyl)-δ-N′-(3′,4′-dihydroxyphenethyl)-L-glutamine α-benzyl ester] is 2.2 µM.

The assay is the same for the next values; noted with them: Table 1; 4-hydroxy derivative of the root amino acid, formula Ic; read-out: Anti-integrase activity (IC50) 4-hydroxy derivative.
With `O=C(N[C@@H](Cc1ccc(O)cc1)C(=O)NCCc1ccc(O)c(O)c1)c1ccc(O)cc1` [Example 11, N-[N′-(p-hydroxybenzoyl)-L-tyrosyl]-dopamine], the half-maximal inhibitory concentration (IC50) was found to be 88 µM.
The same measure, in the same setting: the figure for `O=C(N[C@@H](Cc1ccccc1)C(=O)NCCc1ccc(O)c(O)c1)c1ccc(O)cc1` [Example 13, N-[N′-(p-hydroxybenzoyl)-L-phenylalanyl]-dopamine] is above 200 µM; for `C[C@H](NC(=O)c1ccc(O)cc1)C(=O)NCCc1ccc(O)c(O)c1` [Example 19, N-[N′-(p-hydroxybenzoyl)-L-alanyl]-dopamine] it is 160 µM; for `O=C(CC[C@H](NC(=O)c1ccc(O)cc1)C(=O)NCCc1ccc(O)c(O)c1)NCCc1ccc(O)c(O)c1` [Example 21, N-[′-(p-hydroxybenzoyl)-6-(3-hydroxytyramine)-L-glutamyl]-dopamine] it is 64 µM.
Same read-out and setting: the figure for `CC(C)C[C@H](NC(=O)c1ccc(O)cc1)C(=O)NCCc1ccc(O)c(O)c1` [Example 25, N-[N′-(p-hydroxybenzoyl)-L-leucyl]-dopamine] is above 200 µM.
The same measure, in the same setting: next, `O=C(NCCc1ccc(O)c(O)c1)[C@@H]1CCCN1C(=O)c1ccc(O)cc1` [Example 27, N-[N′-(p-hydroxybenzoyl)-L-prolyl]-dopamine]: above 200 µM; “N-[N′-(p-hydroxybenzoyl)-L-tryptophanyl]-dopamine [Example 29]”: 245 µM.

Still in this assay, the particulars now being: Table 2; dipeptide derivatives of I; read-out: Anti-integrase activity (IC50).
Take `O=C(N[C@@H](Cc1ccc(O)cc1)C(=O)N[C@@H](Cc1ccc(O)cc1)C(=O)O)c1ccc(O)c(O)c1` [Example 36, N-[N′-(3′,4′-dihydroxybenzoyl)-L-tyrosyl]-L-tyrosine]: the concentration for half-maximal inhibition (IC50) is 177 µM.
Consider `O=C(O)CNC(=O)[C@H](Cc1ccc(O)cc1)NC(=O)c1ccc(O)c(O)c1` [Example 37, N-[N′-(3′,4′-dihydroxybenzoyl)-L-tyrosyl]-glycine], for which the half-maximal inhibitory concentration (IC50) is above 200 µM.
Still for that read-out and setting: next, `O=C(CNC(=O)c1ccc(O)c(O)c1)N[C@@H](Cc1ccc(O)cc1)C(=O)O` [Example 39, N-[N′-(3′,4′-dihydroxybenzoyl)-glycyl]-L-tyrosine]: above 200 µM; `O=C(C[C@H](NC(=O)[C@H](Cc1ccc(O)cc1)NC(=O)c1ccc(O)c(O)c1)C(=O)NCCc1ccc(O)c(O)c1)OCc1ccccc1` [Example 41, N-[N′-[N″-(3″,4″-dihydroxybenzoyl)-L-tyrosyl]-L-γ-O-benzyl-aspartyl]-dopamine]: 20 µM.
With `O=C(N[C@@H](Cc1ccc(O)cc1)C(=O)N[C@@H](Cc1ccc(O)cc1)C(=O)NCCc1ccc(O)c(O)c1)c1ccc(O)c(O)c1` [Example 51], the IC50 came to 17 µM.

The target in another assay is T1, HIV-1 integrase. As to the kind of experiment: HIV-1 integrase inhibition assay (based on procedure of Hazuda et al.). It is filed as biochemical. Particulars: Table 3; Nα-caffeoyl derivative of the root amino acid, general formula I; read-out: Anti-integrase activity (IC50) Nα-Caffeoyl derivative. The source says:
For the purposes of Table 3 the HIV-1 integrase inhibition assay was based on a known procedure (Hazuda, D. J. et al., Nucleic Acids Res. 22, 1121-1122 (1994)).
`O=C(C=Cc1ccc(O)c(O)c1)NC(CC(=O)NCCc1ccc(O)c(O)c1)C(=O)OCc1ccccc1` [Example 52, Nα-caffeoyl-Nγ-(3-hydroxytyramine)-L-aspartic acid benzyl ester]: the IC50 amounted to 2.2 µM.
The same measure, in the same setting: next, `O=C(/C=C/c1ccc(O)c(O)c1)N[C@@H](Cc1ccc(O)c(O)c1)C(=O)NCCc1ccc(O)c(O)c1` [Example 54, N-(N′-caffeoyl-L-3,4-dihydroxyphenylalanyl)dopamine]: 0.62 µM; `O=C(/C=C/c1ccc(O)c(O)c1)N[C@@H](Cc1ccc(O)c(O)c1)C(=O)NCc1ccc(O)c(O)c1` [Example 55, N-(N′-caffeoyl-L-3,4-dihydroxyphenylalanyl)-3,4-dihydroxybenzylamine]: 0.38 µM.
On the same count and under the same terms, next, `O=C(/C=C/c1ccc(O)c(O)c1)N[C@@H](CO)C(=O)NCCc1ccc(O)c(O)c1` [Example 59, N-(N′-caffeoyl-L-seryl)dopamine]: 0.14 µM; `O=C(C=Cc1ccc(O)c(O)c1)NC(CCC(=O)NCCc1ccc(O)c(O)c1)C(=O)NCCc1ccc(O)c(O)c1` [Example 60, N-[N′-caffeoyl-Nα-(3-hydroxytyramine)-L-glutamyl]dopamine]: 0.105 µM.
The same measure, in the same setting: the figure for `O=C(/C=C/c1ccc(O)c(O)c1)N[C@@H](CC(=O)OCc1ccccc1)C(=O)NCCc1ccc(O)c(O)c1` [Example 61, N-(N′-caffeoyl-Oγ-benzyl-L-aspartyl)dopamine] is 3.5 µM.
Take `O=C(O)C[C@H](NC(=O)/C=C/c1ccc(O)c(O)c1)C(=O)NCCc1ccc(O)c(O)c1` [Example 62, N-(N′-caffeoyl-L-aspartyl)dopamine]: the IC50 stood at 3.5 µM.
The same measure, in the same setting: the figure for `O=C(/C=C/c1ccc(O)c(O)c1)N[C@@H](Cc1ccc(O)cc1)C(=O)NCc1ccc(O)c(O)c1` [Example 64, N-(N′-caffeoyl-L-tyrosyl)-3,4-dihydroxybenzylamine] is 3 µM; for “N-(N′-caffeoyl-L-tryptophanyl)dopamine [Example 53]” it is 1.5 µM.

The assay is the same for the next values; noted with them: Table 3; other Nα-3,4-dihydroxyphenyl derivative of the root amino acid, general formula I; read-out: Anti-integrase activity (IC50) Other Nα-3,4-dihydroxyphenyl derivative.
Turning to `O=C(N[C@@H](Cc1ccc(O)cc1)C(=O)NCc1ccc(O)c(O)c1)c1ccc(O)c(O)c1` [Example 56, N-[N′-(3′,4′-dihydroxybenzoyl)-L-tyrosyl]-3,4-dihydroxybenzylamine], the IC50 stood at 0.78 µM.
Still for that read-out and setting: next, `O=C(Cc1ccc(O)c(O)c1)N[C@@H](Cc1ccc(O)c(O)c1)C(=O)NCCc1ccc(O)c(O)c1` [Example 57, N-[N′-(3′,4′-dihydroxyphenylacetyl)-L-3,4-dihydroxyphenylalanyl]dopamine]: 0.106 µM; `O=C(N[C@@H](CS)C(=O)NCCc1ccc(O)c(O)c1)c1ccc(O)c(O)c1` [Example 58, N-[N′-(3′,4′-dihydroxybenzoyl)-L-cysteinyl]dopamine]: 0.21 µM; `O=C(CC[C@H](NC(=O)c1ccc(O)c(O)c1)C(=O)O)NCCc1ccc(O)c(O)c1` [Example 63, Nα-(3,4-dihydroxybenzoyl)-Nδ-(3-hydroxytyramine) L-glutamic acid]: 2.8 µM.
